≈ marks a conversion by molar mass, not a printed value. Like-named read-outs stand apart in the source and are kept apart here.
How the values were obtained:
L. donovani = system: L. donovani; parameters: method as in PMID 21358812; details: ex vivo splenic explant model system; read-out: IC50 against L. donovani; cited from earlier work
[1] = system: L. infantum promastigotes; assay: Antileishmanial activity against L. infantum promastigotes (MTT assay); details: for IC50: Leishmania infantum, 72 h, read-out: IC50 L. infantum; for Ratio IC50 Miltef./IC50 Compd. (L. infantum): ratio between IC50 of miltefosine and that of each compound, L. infantum promastigotes
Procedure: (§5) Promastigote stage of L. infantum strain MHOM/TN/80/IPT1 (kindly provided by Dr. M. Gramiccia, ISS, Roma) and L. tropica (MHOM/SY/2012/ISS3130) were cultured in RPMI 1640 medium (EuroClone) supplemented with 10% heat-inactivated fetal calf serum (EuroClone, Milan Italy), 20 mM Hepes and 2 mM L-glutamine at 24 °C. […] Compounds were dissolved in DMSO and then diluted with medium to achieve the required concentrations. Drugs were placed in 96 wells round-bottom microplates and seven serial dilutions made. Miltefosine was used as reference anti-Leishmania drug. Parasites were diluted in complete medium to 5 × 10^6 parasites/mL and 100 μL of the suspension was seeded into the plates, incubated at 24 °C for 72 h and then 20 µL of MTT solution (5 mg/mL) was added into each well for 3 h. The plates were then centrifuged, the supernatants were discarded and the resulting pellets were dissolved in 100 µL of lysing buffer consisting of 20% (w/v) of a solution of SDS (Sigma), 40% DMF (Merck, Milan Italy) in H2O. The absorbance was measured spectrophotometrically at a test wavelength of 550 nm and a reference wavelength of 650 nm.

[2] = i.p., doses up to 200–350 mg/kg, once a day for five consecutive days, mice inoculated with leukemia P388 cells; cited from earlier work
[3] = system: rat skeletal myoblast cells (L6); details: cited from earlier work
[4] = system: Leishmania tropica promastigotes; assay: Antileishmanial activity against L. tropica promastigotes (MTT assay); details: for IC50: 72 h, IC50 ± SD; for Ratio IC50 Miltef./IC50 Compd. (L. tropica): ratio between IC50 of miltefosine and that of each compound, L. tropica promastigotes
Procedure: as §5

[5] = system: rat skeletal myoblast cells (L6); assay: Cytotoxicity on rat skeletal myoblast cells (L6); assay type: cell-based
[6] = system: choline uptake into rat brain synaptosomes; parameters: method as in PMID 6124978; details: 1 µM concentration; cited from earlier work
[7] = Cytotoxicity against Vero-76 cells (crystal violet staining); assay type: cell-based, Cercopithecus Aethiops; details: Cercopithecus aethiops (African green monkey); Vero-76 monolayers; CC50 ± SD; read-out: CC50 Vero-76
Procedure: (§1) The cytotoxicity of lucanthone was also tested for comparison. […] The relevant selectivity index (SI)—a parameter that quantifies the preferential antileishmanial activity of a compound in relation to mammalian cell toxicity (CC50/IC50)—is tabulated in Table 2. […] The replacement of the 4-methyl substituent with an amino group in compound 14, while preserving good antileishmanial activity, led to a further substantial decrease of cytotoxicity, with a resultantly safer profile (SI = 16.2 and 16.9 for the two Leishmania species).
(§2) Vero-76 cells (ATCC CRL 1587 Cercopithecus Aethiops) were seeded at an initial density of 4 × 10^5 cells/mL in 24-well plates, in culture medium (Dulbecco’s modified eagle’s medium (D-MEM) with L-glutamine, supplemented with fetal bovine serum (FBS), 0.025 g/L kanamycin). Cell cultures were then incubated at 37 °C in a humidified, 5% CO2 atmosphere in the absence or presence of serial dilutions of test compounds. Cell viability was determined after 48–96 h at 37 °C by the Crystal violet staining method. The results are expressed as CC50, which is the concentration of compound necessary to inhibit cell growth by 50%. Each CC50 value is the mean and standard deviation of at least three separate experiments performed in duplicate.

Vero-76 cells = assay: as above; assay type: cell-based, Cercopithecus Aethiops
Procedure: as §1, §2

PMA-differentiated THP-1 = assay: Cytotoxicity against PMA-differentiated THP-1 cells (MTT); assay type: cell-based, human; details: CC50 THP-1 / IC50 L. infantum amastigotes
Procedure: (§3) The cytotoxic concentration (CC50) against THP-1 differentiated into macrophages (Table 3), used for testing the activity against the amastigote stage, is also reported.
(§4) THP-1 cells were plated at 5 × 10^5 cells/mL in 96 wells flat bottom microplates and treated with 0.1 µM PMA for 48 h to achieve differentiation into macrophages. Cells were then treated with serial dilutions of test compounds and cell proliferation evaluated using the MTT assay described for promastigotes.

[8] = as above; assay type: cell-based, human; details: human; PMA-differentiated THP-1; mean ± SD; read-out: THP-1 CC50
Procedure: as §3, §4

[9] = parameters: method as in PMID 4954156, PMID 4633870; details: bacteria not specified; cited from earlier work
BChE = system: BChE; parameters: method as in PMID 3707621, PMID 25924599, PMID 21459491; details: cited from earlier work
[10] = system: intramacrophagic L. tropica amastigotes; parameters: method as in PMID 6312823; details: cited from earlier work
AChE = system: AChE; parameters: method as in PMID 3707621, PMID 25924599, PMID 21459491; details: cited from earlier work
[11] = system: intramacrophagic amastigotes of L. infantum; assay: Intracellular amastigote susceptibility assay in PMA-differentiated THP-1 macrophages; assay type: cell-based; details: Leishmania infantum, THP-1, 72 h, read-out: L. infantum Amastigotes IC50
Procedure: Finally, for a better idea of their real value as antileishmanial agents, compounds 14 and 17, displaying the most promising activity against promastigote stage and the highest SI values, together with lucanthone and the corresponding quinolizidine analog 1, were tested against the intramacrophagic amastigote stage of L. infantum.
THP-1 cells (human acute monocytic leukemia) were maintained in RPMI supplemented with 10% FBS (EuroClone), 50 µM 2-mercaptoethanol, 20 mM Hepes and 2 mM glutamine, at 37 °C in 5% CO2. For Leishmania infections, THP-1 cells were plated at 5 × 10^5 cells/mL in 16-chamber Lab-Tek culture slides (Nunc, Milan, Italy) and treated with 0.1 µM phorbol myristate acetate (PMA, Sigma) for 48 h to achieve differentiation into macrophages. Cells were washed and infected with metacyclic L. infantum promastigotes at a macrophage/promastigote ratio of 1/10 for 24 h. Cell monolayers were then washed and incubated in the presence of test compounds for 72 h. Slides were fixed with methanol and stained with Giemsa. The percentages of infected macrophages among treated and non-treated cells were determined by light microscopy.

[12] = Leishmania tropica, read-out: IC50 L. tropica, promastigotes, MTT, 72 h

Question: Which IC50 (L. donovani) does the source give for `O=c1c2ccccc2sc2c(CO)ccc(CCN3CCCCC3)c12` [1-(piperidinoethyl)-4-hydroxymethylthioxanthen-9-one] here?
Answer: 9.1 µM

Question: What does the source list for `COc1ccc2sc3c(C)ccc(NCCC4CCCN5CCCCC45)c3c(=O)c2c1` (stereo not drawn) [Compound 6]?
Answer: IC50 [1]: > 46 µM; Ratio IC50 Miltef./IC50 Compd. (L. infantum) [1]: <0.7; mortality [2]: no mortality; CC50 [3]: 137 µM; IC50 [4, 12]: 28.4 ± 14.3 µM; Ratio IC50 Miltef./IC50 Compd. (L. tropica) [4]: 1.5; selectivity index (SI) L6 vs L. infantum ([5]; CC50 L6 / IC50 L. infantum): ≤ 3; selectivity index (SI) L6 vs L. tropica ([5]; CC50 L6 / IC50 L. tropica): 4.8

Question: With `C(=C1c2ccccc2CCc2ccccc21)[C@@H]1CCCN2CCCC[C@H]12` [Compound 18, lupinylidene dibenzocycloheptadiene] as the molecule, how does the IC50 [1] read?
Answer: 25.2 ± 1.92 µM

Question: And the “Ratio IC50 Miltef./IC50 Compd. (L. infantum)” value [1]?
Answer: 1.24

Question: And the IC50 [4, 12]?
Answer: 24.2 ± 3.58 µM

Question: And the “Ratio IC50 Miltef./IC50 Compd. (L. tropica)” value [4]?
Answer: 1.8

Question: What about the “inhibition of choline uptake into rat brain synaptosomes” value [6] of the same molecule?
Answer: inhibit the choline uptake

Question: For `CCN(CC)CCNc1ccc(C)c2sc3ccccc3c(=O)c12` [Lucanthone], which CC50 [7] is on record?
Answer: 12.4 ± 2.1 µM

Question: What about the “S.I. L. infantum” value (Vero-76 cells; CC50 Vero-76 / IC50 L. infantum promastigotes) of the same molecule?
Answer: 3.5

Question: What about the “S.I. L. tropica” value (Vero-76 cells; CC50 Vero-76 / IC50 L. tropica promastigotes) of the same molecule?
Answer: 4.8

Question: What about the “SI (THP-1)” value (PMA-differentiated THP-1) of the same molecule?
Answer: 4.4

Question: And the CC50 [8]?
Answer: 15.2 ± 0.27 µM

Question: And the IC50 [1]?
Answer: 3.5 ± 1.17 µM

Question: And the “Ratio IC50 Miltef./IC50 Compd. (L. infantum)” value [1]?
Answer: 8.9

Question: What about the “MIC (antibacterial activity)” value [9] of the same molecule?
Answer: 30 to 60 µM

Question: And the “IC50 BChE inhibition” value (BChE)?
Answer: low micromolar and sub-micromolar range

Question: What about the IC50 [4, 12] of the same molecule?
Answer: 2.5 µM

Question: And the “Ratio IC50 Miltef./IC50 Compd. (L. tropica)” value [4]?
Answer: 16.8

Question: And the IC50 ([4]; read-out: IC50 L. tropica, promastigotes, MTT)?
Answer: 2.57 ± 1.03 µM

Question: What about the “IC50 against intramacrophagic L. tropica amastigotes” value [10] of the same molecule?
Answer: 0.93 µg/mL (≈ 2.73 µM)

Question: And the IC50 ([10]; converted value in brackets, read-out: IC50 against intramacrophagic L. tropica amastigotes)?
Answer: 2470 nM

Question: And the “IC50 AChE inhibition” value (AChE)?
Answer: low micromolar and sub-micromolar range

Question: And the IC50 [11]?
Answer: 3.43 ± 0.93 µM
